Test results as given in article PMC2949076 (Journal of clinical immunology, 2010).
Several values for one entry are separate records, joined by “and”; a condition that tells them apart may be missing. Equal entries are not always repeated.

Legend:
CD8+ T cells in PBMC [1] = format: cell-based, human
CD8+ T cells in PBMC [2] = experiment: Granzyme B and perforin detection by flow cytometry; format: cell-based, human

Substance: staphylococcal enterotoxin B [SEB]
- CD107a mobilization, monofunctional vs polyfunctional cells (CD8+ T cells in PBMC [1]): increases were observed
- IFN-γ-level change in polyfunctional cells (CD8+ T cells in PBMC [1]): increases in IFN-γ observed
- CD8+ T cells lacking granule proteins (CD8+ T cells in PBMC [2]): 58% and 44.5–70.9%
